Data taken from patent US12310975B2, “Modulators of BCL6 proteolysis and associated methods of use” (Arvinas Operations, Inc., priority 2019, dated 2025).

What was measured:
[1] = target: T1, BCL6 (Homo sapiens (Human), UniProt P41182); assay: Immunofluorescence high content imaging of BCL6 degradation in T47D cells; type: cell-based; settings: T47D
Outline: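 T47D cells were treated 3 days at 37 °C with an 11-point 3-fold dilution series (top 0.1 or 1 μM), then fixed, permeabilized and immunostained for BCL6 with Alexa-488 secondary, CellMask and Hoechst. BCL6 signal was imaged at 10×, 4 fields/well, with top-hat smoothing.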

[2] = target: T1, BCL6; assay: BCL6 TR-FRET assay (BCL6-Avitag-Biotin / BCoR-Cy5 peptide); type: binding; settings: read-out: IC50
Outline: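 After 30 min room-temperature preincubation of compound titrations with 2 nM biotinylated BCL6-Avitag, 100 nM Cy5-labelled BCoR peptide plus 2 nM Eu-streptavidin were added and TR-FRET read 2 h later. HEPES pH 7.5/125 mM NaCl buffer with Triton X, glutathione (or DTT) and BSA.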

| SMILES | Dmax [1] [%] | IC50 [2] [µM] |
| --- | --- | --- |
| CNC(=O)COc1cc2cc(Nc3nc(N4CCC(CN5CC(N6CCN(c7cccc8c7C(=O)N(C7CCC(=O)NC7=O)C8=O)CC6)C5)CC4)ncc3Cl)ccc2n(C(C)C)c1=O (centres unmarked) [compound 499, 2-({6-[(5-chloro-2-{4-[(3-{4-[2-(2,6-dioxopiperidin-3-yl)-1,3-dioxo-2,3-dihydro-1H-isoindol-4-yl]piperazin-1-yl}azetidin-1-yl)methyl]piperidin-1-yl}pyrimidin-4-yl)amino]-2-oxo-1-(propan-2-yl)-1,2-dihydroquinolin-3-yl}oxy)-N-methylacetamide] | ≥ 70 | < 0.01 |
| CNC(=O)COc1cc2cc(Nc3nc(N4CCC(CN5CC6(CCN(c7ccc8c(c7)C(=O)N(C7CCC(=O)NC7=O)C8=O)C6)C5)CC4)ncc3Cl)ccc2n(C(C)C)c1=O (centres unmarked) [compound 500, 2-{[6-({5-chloro-2-[4-({6-[2-(2,6-dioxopiperidin-3-yl)-1,3-dioxo-2,3-dihydro-1H-isoindol-5-yl]-2,6-diazaspiro[3.4]octan-2-yl}methyl)piperidin-1-yl]pyrimidin-4-yl}amino)-2-oxo-1-(propan-2-yl)-1,2-dihydroquinolin-3-yl]oxy}-N-methylacetamide] | 50 to 70 | < 0.01 |
| CNC(=O)COc1cc2cc(Nc3nc(N4CCC(CN5CC6(CCN(c7cccc8c7C(=O)N(C7CCC(=O)NC7=O)C8=O)C6)C5)CC4)ncc3Cl)ccc2n(C(C)C)c1=O (centres unmarked) [compound 501, 2-{[6-({5-chloro-2-[4-({6-[2-(2,6-dioxopiperidin-3-yl)-1,3-dioxo-2,3-dihydro-1H-isoindol-4-yl]-2,6-diazaspiro[3.4]octan-2-yl}methyl)piperidin-1-yl]pyrimidin-4-yl}amino)-2-oxo-1-(propan-2-yl)-1,2-dihydroquinolin-3-yl]oxy}-N-methylacetamide] | 50 to 70 | < 0.01 |
| CNC(=O)COc1cc2cc(Nc3nc(N4CCC(CN5CCC6(C5)CN(c5cccc7c5C(=O)N(C5CCC(=O)NC5=O)C7=O)C6)CC4)ncc3Cl)ccc2n(C(C)C)c1=O (centres unmarked) [compound 502, 2-{[6-({5-chloro-2-[4-({2-[2-(2,6-dioxopiperidin-3-yl)-1,3-dioxo-2,3-dihydro-1H-isoindol-4-yl]-2,6-diazaspiro[3.4]octan-6-yl}methyl)piperidin-1-yl]pyrimidin-4-yl}amino)-2-oxo-1-(propan-2-yl)-1,2-dihydroquinolin-3-yl]oxy}-N-methylacetamide] | 50 to 70 | < 0.01 |
| CNC(=O)COc1cc2cc(Nc3nc(N4CCN(CC5CCN(c6cccc7c6C(=O)N(C6CCC(=O)NC6=O)C7=O)CC5)CC4)ncc3Cl)ccc2n(CCC2COC2)c1=O (centres unmarked) [compound 503, 2-{[6-({5-chloro-2-[4-({1-[2-(2,6-dioxopiperidin-3-yl)-1,3-dioxo-2,3-dihydro-1H-isoindol-4-yl]piperidin-4-yl}methyl)piperazin-1-yl]pyrimidin-4-yl}amino)-1-[2-(oxetan-3-yl)ethyl]-2-oxo-1,2-dihydroquinolin-3-yl]oxy}-N-methylacetamide] | ≥ 70 | < 0.01 |
| CNC(=O)COc1cc2cc(Nc3nc(N4CCC[C@H](COc5cccc6c5C(=O)N(C5CCC(=O)NC5=O)C6=O)C4)ncc3Cl)ccc2n(CCC2COC2)c1=O (stereo partly drawn) [compound 504, 2-{[6-({5-chloro-2-[(3S)-3-({[2-(2,6-dioxopiperidin-3-yl)-1,3-dioxo-2,3-dihydro-1H-isoindol-4-yl]oxy}methyl)piperidin-1-yl]pyrimidin-4-yl}amino)-1-[2-(oxetan-3-yl)ethyl]-2-oxo-1,2-dihydroquinolin-3-yl]oxy}-N-methylacetamide] | ≥ 70 | 0.05 to 0.1 |
| Cn1c(=O)n(CCC(C)(C)O)c2cc(Nc3nc(N4CCN(CC5CCN(c6cccc7c6C(=O)N(C6CCC(=O)NC6=O)C7=O)CC5)CC4)ncc3Cl)ccc21 (centres unmarked) [compound 505, 4-(4-{[4-(5-chloro-4-{[3-(3-hydroxy-3-methylbutyl)-1-methyl-2-oxo-2,3-dihydro-1H-1,3-benzodiazol-5-yl]amino}pyrimidin-2-yl)piperazin-1-yl]methyl}piperidin-1-yl)-2-(2,6-dioxopiperidin-3-yl)-2,3-dihydro-1H-isoindole-1,3-dione] | 50 to 70 | 0.05 to 0.1 |
| CNC(=O)COc1cc2cc(Nc3nc(N4CCC(CN5CCC6(CCN(c7cccc8c7C(=O)N(C7CCC(=O)NC7=O)C8=O)CC6)C5)CC4)ncc3Cl)ccc2n(C(C)C)c1=O (centres unmarked) [compound 506, 2-{[6-({5-chloro-2-[4-({8-[2-(2,6-dioxopiperidin-3-yl)-1,3-dioxo-2,3-dihydro-1H-isoindol-4-yl]-2,8-diazaspiro[4.5]decan-2-yl}methyl)piperidin-1-yl]pyrimidin-4-yl}amino)-2-oxo-1-(propan-2-yl)-1,2-dihydroquinolin-3-yl]oxy}-N-methylacetamide] | 50 to 70 | < 0.01 |
| CNC(=O)COc1cc2cc(Nc3nc(N4CCC5(CCN(CC6CCN(c7ccc8c(c7)C(=O)N(C7CCC(=O)NC7=O)C8=O)CC6)C5)CC4)ncc3Cl)ccc2n(C(C)C)c1=O (centres unmarked) [compound 507, 2-{[6-({5-chloro-2-[2-({1-[2-(2,6-dioxopiperidin-3-yl)-1,3-dioxo-2,3-dihydro-1H-isoindol-5-yl]piperidin-4-yl}methyl)-2,8-diazaspiro[4.5]decan-8-yl]pyrimidin-4-yl}amino)-2-oxo-1-(propan-2-yl)-1,2-dihydroquinolin-3-yl]oxy}-N-methylacetamide] | ≥ 70 | < 0.01 |
| CNC(=O)COc1cc2cc(Nc3nc(N4CCC5(CCN(CC6CCN(c7cccc8c7C(=O)N(C7CCC(=O)NC7=O)C8=O)CC6)C5)CC4)ncc3Cl)ccc2n(C(C)C)c1=O (centres unmarked) [compound 508, 2-{[6-({5-chloro-2-[2-({1-[2-(2,6-dioxopiperidin-3-yl)-1,3-dioxo-2,3-dihydro-1H-isoindol-4-yl]piperidin-4-yl}methyl)-2,8-diazaspiro[4.5]decan-8-yl]pyrimidin-4-yl}amino)-2-oxo-1-(propan-2-yl)-1,2-dihydroquinolin-3-yl]oxy}-N-methylacetamide] | ≥ 70 | < 0.01 |
| CNC(=O)COc1cc2cc(Nc3nc(N4CCC(CN5CCC6(C5)CN(c5ccc7c(c5)C(=O)N(C5CCC(=O)NC5=O)C7=O)C6)CC4)ncc3Cl)ccc2n(C(C)C)c1=O (centres unmarked) [compound 510, 2-{[6-({5-chloro-2-[4-({2-[2-(2,6-dioxopiperidin-3-yl)-1,3-dioxo-2,3-dihydro-1H-isoindol-5-yl]-2,6-diazaspiro[3.4]octan-6-yl}methyl)piperidin-1-yl]pyrimidin-4-yl}amino)-2-oxo-1-(propan-2-yl)-1,2-dihydroquinolin-3-yl]oxy}-N-methylacetamide] | 50 to 70 | < 0.01 |
| CNC(=O)COc1cc2cc(Nc3nc(N4CC5(CCN(CC6CCN(c7cccc8c7C(=O)N(C7CCC(=O)NC7=O)C8=O)CC6)C5)C4)ncc3Cl)ccc2n(C(C)C)c1=O (centres unmarked) [compound 511, 2-{[6-({5-chloro-2-[6-({1-[2-(2,6-dioxopiperidin-3-yl)-1,3-dioxo-2,3-dihydro-1H-isoindol-4-yl]piperidin-4-yl}methyl)-2,6-diazaspiro[3.4]octan-2-yl]pyrimidin-4-yl}amino)-2-oxo-1-(propan-2-yl)-1,2-dihydroquinolin-3-yl]oxy}-N-methylacetamide] | ≥ 70 | < 0.01 |
| CNC(=O)COc1cc2cc(Nc3nc(N4CCC(CN5CCC6(CC5)CCN(c5cccc7c5C(=O)N(C5CCC(=O)NC5=O)C7=O)C6)CC4)ncc3Cl)ccc2n(C(C)C)c1=O (centres unmarked) [compound 512, 2-{[6-({5-chloro-2-[4-({2-[2-(2,6-dioxopiperidin-3-yl)-1,3-dioxo-2,3-dihydro-1H-isoindol-4-yl]-2,8-diazaspiro[4.5]decan-8-yl}methyl)piperidin-1-yl]pyrimidin-4-yl}amino)-2-oxo-1-(propan-2-yl)-1,2-dihydroquinolin-3-yl]oxy}-N-methylacetamide] | 50 to 70 | < 0.01 |
| CNC(=O)COc1cc2cc(Nc3nc(N4CCC5(CCN(CC6CCN(c7cccc8c7C(=O)N(C7CCC(=O)NC7=O)C8=O)CC6)CC5)C4)ncc3Cl)ccc2n(C(C)C)c1=O (centres unmarked) [compound 513, 2-{[6-({5-chloro-2-[8-({1-[2-(2,6-dioxopiperidin-3-yl)-1,3-dioxo-2,3-dihydro-1H-isoindol-4-yl]piperidin-4-yl}methyl)-2,8-diazaspiro[4.5]decan-2-yl]pyrimidin-4-yl}amino)-2-oxo-1-(propan-2-yl)-1,2-dihydroquinolin-3-yl]oxy}-N-methylacetamide] | ≥ 70 | < 0.01 |
| CNC(=O)COc1cc2cc(Nc3nc(N4CCC5(CC4)CCN(C4CCN(c6ccc7c(c6)C(=O)N(C6CCC(=O)NC6=O)C7=O)CC4)C5)ncc3Cl)ccc2n(C(C)C)c1=O (centres unmarked) [compound 514, 2-[(6-{[5-chloro-2-(2-{1-[2-(2,6-dioxopiperidin-3-yl)-1,3-dioxo-2,3-dihydro-1H-isoindol-5-yl]piperidin-4-yl}-2,8-diazaspiro[4.5]decan-8-yl)pyrimidin-4-yl]amino}-2-oxo-1-(propan-2-yl)-1,2-dihydroquinolin-3-yl)oxy]-N-methylacetamide] | < 50 | < 0.01 |
| CNC(=O)COc1cc2cc(Nc3nc(N4CCC(N5CCC6(CCN(c7ccc8c(c7)C(=O)N(C7CCC(=O)NC7=O)C8=O)C6)CC5)CC4)ncc3Cl)ccc2n(C(C)C)c1=O (centres unmarked) [compound 515, 2-[(6-{[5-chloro-2-(4-{2-[2-(2,6-dioxopiperidin-3-yl)-1,3-dioxo-2,3-dihydro-1H-isoindol-5-yl]-2,8-diazaspiro[4.5]decan-8-yl}piperidin-1-yl)pyrimidin-4-yl]amino}-2-oxo-1-(propan-2-yl)-1,2-dihydroquinolin-3-yl)oxy]-N-methylacetamide] | ≥ 70 | 0.01 to 0.05 |
